{"source": "patent US20150105252A1", "about": "“SUBSTITUTED PYRAZOLES AS HERBICIDES” (E I DU PONT DE NEMOURS AND COMPANY, priority 2013, published 2015)", "key": {"[1]": {"tested_on": "lambsquarters", "assay": "Test C preemergence", "assay_type": "in vivo, Chenopodium album", "in_short": "(§1)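 Herbicidal effect is expressed as percent visual control (0–100) judged against untreated plants 13 to 15 days after treatment in the greenhouse. Preemergence pots contained seeds in a soil–sand blend; postemergence plants, 2–18 cm tall, grew in peat-based planting medium.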"}, "[2]": {"tested_on": "morningglory", "assay": "Test C preemergence", "assay_type": "in vivo, Ipomoea coccinea", "from_the_text": "(§2) Seeds of plant species selected from blackgrass (Alopecurus myosuroides), ryegrass, Italian (Italian ryegrass, Lolium multiflorum), wheat (winter wheat, Triticum aestivum), galium (catchweed bedstraw, Galium aparine), corn (Zea mays), crabgrass, large (large crabgrass, Digitaria sanguinalis), foxtail, giant (giant foxtail, Setaria faberii), johnsongrass (Sorghum halepense), lambsquarters (Chenopodium album), morningglory (Ipomoea coccinea), nutsedge, yellow (yellow nutsedge, Cyperus esculentus), pigweed (redroot pigweed, Amaranthus retroflexus), ragweed (common ragweed, Ambrosia elation), soybean (Glycine max), barnyardgrass (Echinochloa crus-galli), oilseed rape (Brassica napus), waterhemp (common waterhemp, Amaranthus rudis), oat, wild (wild oat, Avena fatua), kochia (Kochia scoparia), Surinam grass (Brachiaria decumbens), foxtail, green (green foxtail, Setaria viridis), goosegrass (Eleusine indica), bromegrass, downy (downy bromegrass, Bromus tectorum), nightshade (eastern black nightshade, Solanum ptycanthum), cocklebur (common cocklebur, Xanthium strumarium), cupgrass, woolly (woolly cupgrass, Eriochloa villosa), bermudagrass (Cynodon dactylon), sunflower, (common oilseed sunflower, Helianthus annuus), Russian thistle (Salsola kali), and velvetleaf (Abutilon theophrasti) were planted into a blend of loam soil and sand and treated preemergence with test chemicals formulated in a non-phytotoxic solvent mixture which included a surfactant.\n(§3) At the same time, plants selected from these crop and weed species and also chickweed (common chickweed, Stellaria media), canarygrass (littleseed canarygrass, Phalaris minor), and deadnettle (henbit deadnettle, Lamium amplexicaule), were planted in pots containing Redi-Earth® planting medium (Scotts Company, 14111 Scottslawn Road, Marysville, Ohio 43041) comprising spaghnum peat moss, vermiculite, wetting agent and starter nutrients and treated with postemergence applications of test chemicals formulated in the same manner. Plants ranged in height from 2 to 18 cm (1- to 4-leaf stage) for postemergence treatments. Treated plants and controls were maintained in a greenhouse for 13 to 15 days, after which time all species were compared to controls and visually evaluated. Plant response ratings, summarized in Table C, are based on a scale of 0 to 100 where 0 is no effect and 100 is complete control. A dash (-) response means no test result."}, "[3]": {"tested_on": "rice", "assay": "Test B flood", "assay_type": "in vivo, Oryza sativa", "details": "250 g ai/ha, visual rating on 0 to 100 scale (0 no effect, 100 complete control), 13 to 15 days", "in_short": "(§4)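 Visual ratings on a 0–100 scale, where 0 means no effect and 100 means complete control, were assigned by comparison with controls 13 to 15 days after treatment. Compounds went into paddy water over 2-leaf plants flooded to 3 cm.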"}, "[4]": {"tested_on": "ducksalad", "assay": "Test B flood", "assay_type": "in vivo, Heteranthera limosa", "details": "250 g ai/ha, visual rating on 0 to 100 scale (0 no effect, 100 complete control), 13 to 15 days", "in_short": "as §4"}, "[5]": {"tested_on": "nutsedge, yellow", "assay": "Test C preemergence", "assay_type": "in vivo, Cyperus esculentus", "in_short": "as §1"}, "[6]": {"tested_on": "waterhemp", "assay": "Test C preemergence", "assay_type": "in vivo, Amaranthus rudis", "from_the_text": "as §2, §3"}, "[7]": {"tested_on": "velvetleaf", "assay": "Test C preemergence", "assay_type": "in vivo, Abutilon theophrasti", "from_the_text": "as §2, §3"}, "[8]": {"tested_on": "barnyardgrass", "assay": "Test A preemergence", "assay_type": "in vivo, Echinochloa crus-galli", "details": "preemergence; for Barnyardgrass plant response rating (0 to 100 scale, 0 is no effect, 100 is complete control): visual injury approx. 10 days after treatment", "in_short": "(§5)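 Pre- and postemergence greenhouse test; loam+sand; cpd in non-phytotox. solvent/surfactant; post at 1–2 leaf, 2–10 cm; visual score ~10 d, 0 = none, 100 = complete control.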"}, "[9]": {"tested_on": "crabgrass, large", "assay": "Test A postemergence", "assay_type": "in vivo, Digitaria sanguinalis", "in_short": "as §5"}, "[10]": {"details": "preemergence, 31 g ai/ha, visual rating, scale 0 to 100 (0 no effect, 100 complete control), 13 to 15 days"}, "[11]": {"details": "preemergence, 62 g ai/ha, scale 0 to 100 (0 no effect, 100 complete control), 13 to 15 days"}, "[12]": {"details": "preemergence, 125 g ai/ha, 13 to 15 days, scale 0 to 100, 0 = no effect, 100 = complete control"}, "[13]": {"details": "preemergence, 250 g ai/ha, scale 0 to 100, 0 is no effect, 100 is complete control"}, "[14]": {"details": "500 g ai/ha, visual injury after approx. 10 days, 0 to 100 scale (0 no effect, 100 complete control)"}, "[15]": {"details": "Postemergence, 500 g ai/ha, 0 to 100 scale (0 no effect, 100 complete control)"}, "[16]": {"details": "postemergence, 125 g ai/ha, about 10 days, visual rating on 0 to 100 scale (0 no effect, 100 complete control)"}, "[17]": {"details": "Preemergence, 16 g ai/ha, scale 0 to 100"}}}
{"molecule": "O=C(NCC(F)(F)F)c1cc(CCF)n(Cc2ccnc(C(F)(F)F)c2)n1", "note": "[Compound 175]", "values": [{"measurement": "Lambsquarters plant response rating", "setting": "[1]; [10]", "value": 98}, {"measurement": "Lambsquarters plant response rating", "setting": "[1]; [11]", "value": 100}, {"measurement": "Plant response rating, Lambsquarters", "setting": "[1]; [12]", "value": 100}, {"measurement": "Lambsquarters plant response rating", "setting": "[1]; [13]", "value": 100}, {"measurement": "Morningglory plant response rating", "setting": "[2]; [10]", "value": 95}, {"measurement": "Morningglory plant response rating", "setting": "[2]; [11]", "value": 100}, {"measurement": "Plant response rating, Morningglory", "setting": "[2]; [12]", "value": 100}, {"measurement": "Morningglory plant response rating", "setting": "[2]; [13]", "value": 100}, {"measurement": "Plant response rating, Rice", "setting": "[3]", "value": 25}, {"measurement": "Plant response rating, Ducksalad", "setting": "[4]", "value": 100}, {"measurement": "Nutsedge, Yellow plant response rating", "setting": "[5]; [10]", "value": 10}, {"measurement": "Nutsedge, Yellow plant response rating", "setting": "[5]; [11]", "value": 55}, {"measurement": "Plant response rating, Nutsedge, Yellow", "setting": "[5]; [12]", "value": 70}, {"measurement": "Nutsedge, Yellow plant response rating", "setting": "[5]; [13]", "value": 98}, {"measurement": "Waterhemp plant response rating", "setting": "[6]; [10]", "value": 100}, {"measurement": "Waterhemp plant response rating", "setting": "[6]; [11]", "value": 100}, {"measurement": "Plant response rating, Waterhemp", "setting": "[6]; [12]", "value": 100}, {"measurement": "Waterhemp plant response rating", "setting": "[6]; [13]", "value": 100}, {"measurement": "Velvetleaf plant response rating", "setting": "[7]; [10]", "value": 55}, {"measurement": "Velvetleaf plant response rating", "setting": "[7]; [11]", "value": 98}, {"measurement": "Plant response rating, Velvetleaf", "setting": "[7]; [12]", "value": 100}, {"measurement": "Velvetleaf plant response rating", "setting": "[7]; [13]", "value": 100}, {"measurement": "Barnyardgrass plant response rating", "setting": "[8]; 125 g ai/ha, visual injury, 0 to 100 scale, approx. 10 days", "value": 100}, {"measurement": "Barnyardgrass plant response rating", "setting": "[8]; [14]", "value": 100}, {"measurement": "Crabgrass, Large plant response rating", "setting": "[9]; [15]", "value": 90}, {"measurement": "Crabgrass, Large plant response rating", "setting": "[9]; [16]", "value": 90}]}
{"molecule": "O=C(NC1CC1)c1cc(CCF)n(Cc2ccnc(C(F)(F)F)c2)n1", "note": "[Compound 176]", "values": [{"measurement": "Lambsquarters plant response rating", "setting": "[1]; [10]", "value": 80}, {"measurement": "Lambsquarters plant response rating", "setting": "[1]; [11]", "value": 98}, {"measurement": "Plant response rating, Lambsquarters", "setting": "[1]; [12]", "value": 100}, {"measurement": "Lambsquarters plant response rating", "setting": "[1]; [13]", "value": 100}, {"measurement": "Morningglory plant response rating", "setting": "[2]; [10]", "value": 65}, {"measurement": "Morningglory plant response rating", "setting": "[2]; [11]", "value": 98}, {"measurement": "Plant response rating, Morningglory", "setting": "[2]; [12]", "value": 98}, {"measurement": "Morningglory plant response rating", "setting": "[2]; [13]", "value": 100}, {"measurement": "Plant response rating, Rice", "setting": "[3]", "value": 0}, {"measurement": "Plant response rating, Ducksalad", "setting": "[4]", "value": 100}, {"measurement": "Nutsedge, Yellow plant response rating", "setting": "[5]; [10]", "value": 5}, {"measurement": "Nutsedge, Yellow plant response rating", "setting": "[5]; [11]", "value": 5}, {"measurement": "Plant response rating, Nutsedge, Yellow", "setting": "[5]; [12]", "value": 75}, {"measurement": "Nutsedge, Yellow plant response rating", "setting": "[5]; [13]", "value": 85}, {"measurement": "Waterhemp plant response rating", "setting": "[6]; [10]", "value": 100}, {"measurement": "Waterhemp plant response rating", "setting": "[6]; [11]", "value": 100}, {"measurement": "Plant response rating, Waterhemp", "setting": "[6]; [12]", "value": 100}, {"measurement": "Waterhemp plant response rating", "setting": "[6]; [13]", "value": 100}, {"measurement": "Velvetleaf plant response rating", "setting": "[7]; [10]", "value": 30}, {"measurement": "Velvetleaf plant response rating", "setting": "[7]; [11]", "value": 75}, {"measurement": "Plant response rating, Velvetleaf", "setting": "[7]; [12]", "value": 90}, {"measurement": "Velvetleaf plant response rating", "setting": "[7]; [13]", "value": 100}, {"measurement": "Barnyardgrass plant response rating (0 to 100 scale, 0 is no effect, 100 is complete control)", "setting": "[8]; 125 g ai/ha", "value": 80}, {"measurement": "Barnyardgrass plant response rating", "setting": "[8]; [14]", "value": 100}, {"measurement": "Crabgrass, Large plant response rating", "setting": "[9]; [15]", "value": 90}, {"measurement": "Crabgrass, Large plant response rating", "setting": "[9]; [16]", "value": 80}]}
{"molecule": "CCNC(=O)c1cc(CCF)n(Cc2ccnc(C(F)(F)F)c2)n1", "note": "[Compound 178]", "values": [{"measurement": "Plant response rating, Lambsquarters", "setting": "[1]; [17]", "value": 65}, {"measurement": "Lambsquarters plant response rating", "setting": "[1]; [10]", "value": 80}, {"measurement": "Lambsquarters plant response rating", "setting": "[1]; [11]", "value": 100}, {"measurement": "Plant response rating, Lambsquarters", "setting": "[1]; [12]", "value": 100}, {"measurement": "Plant response rating, Morningglory", "setting": "[2]; [17]", "value": 15}, {"measurement": "Morningglory plant response rating", "setting": "[2]; [10]", "value": 35}, {"measurement": "Morningglory plant response rating", "setting": "[2]; [11]", "value": 95}, {"measurement": "Plant response rating, Morningglory", "setting": "[2]; [12]", "value": 100}, {"measurement": "Plant response rating, Rice", "setting": "[3]", "value": 0}, {"measurement": "Plant response rating, Ducksalad", "setting": "[4]", "value": 95}, {"measurement": "Plant response rating, Nutsedge, Yellow", "setting": "[5]; [17]", "value": 0}, {"measurement": "Nutsedge, Yellow plant response rating", "setting": "[5]; [10]", "value": 5}, {"measurement": "Nutsedge, Yellow plant response rating", "setting": "[5]; [11]", "value": 15}, {"measurement": "Plant response rating, Nutsedge, Yellow", "setting": "[5]; [12]", "value": 35}, {"measurement": "Plant response rating, Waterhemp", "setting": "[6]; [17]", "value": 65}, {"measurement": "Waterhemp plant response rating", "setting": "[6]; [10]", "value": 90}, {"measurement": "Waterhemp plant response rating", "setting": "[6]; [11]", "value": 100}, {"measurement": "Plant response rating, Waterhemp", "setting": "[6]; [12]", "value": 100}, {"measurement": "Plant response rating, Velvetleaf", "setting": "[7]; [17]", "value": 10}, {"measurement": "Velvetleaf plant response rating", "setting": "[7]; [10]", "value": 15}, {"measurement": "Velvetleaf plant response rating", "setting": "[7]; [11]", "value": 55}, {"measurement": "Plant response rating, Velvetleaf", "setting": "[7]; [12]", "value": 70}, {"measurement": "Barnyardgrass plant response rating (0 to 100 scale, 0 is no effect, 100 is complete control)", "setting": "[8]; 125 g ai/ha", "value": 80}, {"measurement": "Barnyardgrass plant response rating", "setting": "[8]; [14]", "value": 100}, {"measurement": "Crabgrass, Large plant response rating", "setting": "[9]; [15]", "value": 90}, {"measurement": "Crabgrass, Large plant response rating", "setting": "[9]; [16]", "value": 80}]}
